Reference: US20050208000A1, “Compositions and methods for prevention of photoaging” (priority 1999, published 2005)

System: human elastin promoter
Assay: Transgenic mouse model of photoaging: human elastin promoter/CAT reporter activity in skin after solar simulating radiation
Format: in vivo, mice
Source text: A transgenic mouse model which contains the human elastin promoter linked to a chloramphenicol acetyltransferase (CAT) reporter gene for testing compounds that may inhibit cutaneous photodamage has been developed. These mice express human elastin promoter activity in a tissue-specific and developmentally regulated manner. […] In addition, quantitative data can be obtained after only a single exposure to ultraviolet radiation. A test compound is applied to the skin of a transgenic mouse capable of expressing the human elastin promoter. The transgenic mouse is then exposed to solar radiation and human elastin promoter activity in the mouse is determined. The human elastin promoter activity is then compared to that in transgenic mice also exposed to an equivalent dose of solar radiation which were not treated with the test compound to determine whether or not the test compound provided protection against the solar radiation. […]
Using this transgenic mouse line, the ability of alpha 1-antitrypsin to inhibit the effects of solar radiation on human elastin promoter activity was determined. […]
To measure the expression of the human elastin promoter/CAT reporter gene construct in the skin of transgenic, mice and in fibroblast cultures established from these animals, CAT activity was determined. […]

## alpha 1-antitrypsin
Topical 20 mg/ml alpha 1-antitrypsin in goat's milk versus goat's milk alone, 20 MEDs SSR on three consecutive days
  reduction in CAT activity: 69%
Transgenic mice, topical application to the back about 15 min before 20 MEDs SSR, three consecutive days, skin harvested 24 hours after third phototreatment, baseline of unirradiated untreated control mice standardized to one
  Relative increase in CAT activity (mean+S.D.): 4.5+1.0
